EC50 data for 39 compounds are collected here from patent publication US9695171B2, “3,4-disubstituted-1 H-pyrrolo[2,3-b]pyridines and 4,5-disubstituted-7H-pyrrolo[2,3-c]pyridazines as LRRK2 inhibitors” (Pfizer Inc., priority 2013, dated 2017).

T1 sequence (Q5S007 970-2527 limits assumed): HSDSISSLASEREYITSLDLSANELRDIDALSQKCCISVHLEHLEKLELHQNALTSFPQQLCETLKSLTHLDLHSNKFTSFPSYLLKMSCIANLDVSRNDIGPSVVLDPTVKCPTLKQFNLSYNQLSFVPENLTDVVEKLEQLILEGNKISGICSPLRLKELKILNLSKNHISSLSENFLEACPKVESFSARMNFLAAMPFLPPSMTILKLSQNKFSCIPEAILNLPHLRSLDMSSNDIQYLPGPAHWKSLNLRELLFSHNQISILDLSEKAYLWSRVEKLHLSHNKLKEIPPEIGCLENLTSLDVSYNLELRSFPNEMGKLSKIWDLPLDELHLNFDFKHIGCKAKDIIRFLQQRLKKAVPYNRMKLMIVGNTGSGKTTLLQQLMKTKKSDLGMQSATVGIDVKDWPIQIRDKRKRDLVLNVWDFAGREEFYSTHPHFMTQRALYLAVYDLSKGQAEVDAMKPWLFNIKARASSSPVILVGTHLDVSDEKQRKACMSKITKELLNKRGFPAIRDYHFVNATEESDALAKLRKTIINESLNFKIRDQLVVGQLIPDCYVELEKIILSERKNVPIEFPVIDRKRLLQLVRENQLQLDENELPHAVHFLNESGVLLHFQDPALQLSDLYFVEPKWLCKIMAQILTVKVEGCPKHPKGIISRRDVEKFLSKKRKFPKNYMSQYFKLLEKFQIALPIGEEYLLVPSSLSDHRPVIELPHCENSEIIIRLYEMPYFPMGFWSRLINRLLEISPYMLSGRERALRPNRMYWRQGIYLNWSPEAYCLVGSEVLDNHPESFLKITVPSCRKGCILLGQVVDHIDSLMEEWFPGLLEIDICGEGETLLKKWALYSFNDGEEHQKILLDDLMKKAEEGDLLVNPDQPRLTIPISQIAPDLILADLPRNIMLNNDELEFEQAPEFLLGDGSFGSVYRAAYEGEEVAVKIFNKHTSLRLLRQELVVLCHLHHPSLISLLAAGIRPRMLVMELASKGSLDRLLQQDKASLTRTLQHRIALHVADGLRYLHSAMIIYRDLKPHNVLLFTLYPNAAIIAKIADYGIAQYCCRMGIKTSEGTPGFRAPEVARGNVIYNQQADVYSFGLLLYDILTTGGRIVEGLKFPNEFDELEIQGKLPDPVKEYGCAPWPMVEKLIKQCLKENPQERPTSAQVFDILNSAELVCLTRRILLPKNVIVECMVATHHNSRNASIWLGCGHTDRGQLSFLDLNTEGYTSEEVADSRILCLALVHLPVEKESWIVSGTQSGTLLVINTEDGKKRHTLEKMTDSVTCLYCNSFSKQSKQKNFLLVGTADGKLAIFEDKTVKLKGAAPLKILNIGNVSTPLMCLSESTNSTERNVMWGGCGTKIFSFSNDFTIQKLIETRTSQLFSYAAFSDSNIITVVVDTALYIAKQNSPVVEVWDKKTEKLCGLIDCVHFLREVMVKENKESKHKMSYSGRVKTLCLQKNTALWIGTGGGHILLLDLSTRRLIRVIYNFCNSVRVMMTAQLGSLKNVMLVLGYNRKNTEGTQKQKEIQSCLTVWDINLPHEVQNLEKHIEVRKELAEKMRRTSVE

The experiment has as its target T1, GST-tagged truncated LRRK2 (Homo sapiens, UniProt Q5S007).
T1 construct: GST-tagged truncated LRRK2 from Invitrogen (Cat # PV4874); GST; purchased Invitrogen PV4874
The experiment can be described thus: LRRK2 kinase assay (Lantha Screen). Type of experiment: biochemical. The conditions noted are these: 1 mM ATP (head); a = geometric mean of >=4 determinations, b = single determination; read-out: LRRK2 LANTHA EC50 at 1 mM ATP; Geometric mean of 2-3 determinations unless otherwise indicated. As to the method:
LRRK2 kinase activity was measured using Lantha Screen technology from Invitrogen. GST-tagged truncated LRRK2 from Invitrogen (Cat # PV4874) was incubated with a fluorescein-labeled peptide substrate based upon ezrin/radixin/moesin (ERM), also known as LRRKtide (Invitrogen cat # PR8976A), in the presence of a dose response of compound. Upon completion, the assay was stopped and detected with a terbium labeled anti-phospho-ERM antibody (Invitrogen, cat # PR8975A). […] The compound dose response was prepared by diluting compound to a top concentration of 3.16 mM in 100% DMSO and serial diluted by half-log in DMSO 11 times. Aliquots (3.5 μL) of the 100% DMSO dose response were mixed with 46.5 μL water then 1 μL of this mixture was added to the 3 μL substrate mix in the 384-well plate. The kinase reaction was started with 3 μL of a working solution of LRRK2 enzyme at a concentration of 4 μg/mL. […] The reaction was allowed to progress at room temperature for two hours and then stopped with the addition of 7 μL of detection buffer (20 mM Tris pH 7.6, 0.01% NP-40, 0.02% NaN3, 6 mM EDTA with 2 nM terbium labeled anti-phospho-ERM). After an incubation of 1 hour at room temperature, the plate was read on an Envision with an excitation wavelength of 340 nm and a reading emission at both 520 nm and 495 nm. The ratio of the 520 nm and 495 nm emission was used to analyze the data.
With `N#Cc1cccc(-c2c[nH]c3nccc(N4CCOCC4)c23)c1` [Example 1, 3-[4-(Morpholin-4-yl)-1H-pyrrolo[2,3-b]pyridin-3-yl]benzonitrile], the EC50 (as a rule, the concentration that produces a half-maximal response) was 4.28 nM. `N#Cc1cccc(-c2c[nH]c3nccc(N4CCOCC4)c23)c1F` [Example 2, 2-Fluoro-3-[4-(morpholin-4-yl)-1H-pyrrolo[2,3-b]pyridin-3-yl]benzonitrile]: the EC50 was determined as 5.17 nM. As for `c1cnn2c(-c3c[nH]c4nccc(N5CCOCC5)c34)cnc2c1` [Example 3, 3-[4-(Morpholin-4-yl)-1H-pyrrolo[2,3-b]pyridin-3-yl]imidazo[1,2-b]pyridazine], the EC50 came out at 14 nM. The result for `Cn1cc(-c2c[nH]c3nccc(N4CCOCC4)c23)cc1C#N` [Example 4, 1-Methyl-4-[4-(morpholin-4-yl)-1H-pyrrolo[2,3-b]pyridin-3-yl]-1H-pyrrole-2-carbonitrile] reads 2.85 nM; that for `Cn1cc(-c2c[nH]c3nccc(N4CCOCC4)c23)nc1C#N` [Example 5, 1-Methyl-4-[4-(morpholin-4-yl)-1H-pyrrolo[2,3-b]pyridin-3-yl]-1H-imidazole-2-carbonitrile], 5.26 nM; that for `Cn1cc(-c2c[nH]c3nncc(N4CCOCC4)c23)cc1C#N` [Example 6, 1-Methyl-4-[4-(morpholin-4-yl)-7H-pyrrolo[2,3-c]pyridazin-5-yl]-1H-pyrrole-2-carbonitrile], 14.2 nM.

With `Cn1cc(-c2c(Cl)[nH]c3nccc(N4CCOCC4)c23)cc1C#N` [Example 7, 4-[2-Chloro-4-(morpholin-4-yl)-1H-pyrrolo[2,3-b]pyridin-3-yl]-1-methyl-1H-pyrrole-2-carbonitrile], the concentration for a half-maximal effect (EC50) is 1.3 nM. Turning to `Cc1[nH]c2nccc(N3CCOCC3)c2c1-c1cccc(C#N)c1` [Example 8, 3-[2-Methyl-4-(morpholin-4-yl)-1H-pyrrolo[2,3-b]pyridin-3-yl]benzonitrile], the EC50 is 22.1 nM. `Cc1cc(N2CCOCC2)c2c(-c3cccc(C#N)c3)c[nH]c2n1` [Example 9, 3-[6-Methyl-4-(morpholin-4-yl)-1H-pyrrolo[2,3-b]pyridin-3-yl]benzonitrile]: the EC50 turned out to be 208 nM. Turning to `N#Cc1cccc(-c2c[nH]c3ncc(CO)c(N4CCOCC4)c23)c1` [Example 10, 3-[5-(Hydroxymethyl)-4-(morpholin-4-yl)-1H-pyrrolo[2,3-b]pyridin-3-yl]benzonitrile], the EC50 worked out at 79.8 nM.

Regarding `N#Cc1cccc(-c2c[nH]c3ncc(C#N)c(N4CCOCC4)c23)c1` [Example 11, 3-(3-Cyanophenyl)-4-(morpholin-4-yl)-1H-pyrrolo[2,3-b]pyridine-5-carbonitrile], the 50% effective concentration (EC50) was 24.2 nM. Regarding `Cn1cc(-c2c[nH]c3nccc(C4=CCOCC4)c23)cn1` [Example 12, 4-(3,6-Dihydro-2H-pyran-4-yl)-3-(1-methyl-1H-pyrazol-4-yl)-1H-pyrrolo[2,3-b]pyridine], the half-maximal effective concentration (EC50) is 59.6 nM.

For `Cn1cc(-c2c[nH]c3nccc(N4CCOCC4)c23)cn1` [Example 13, 3-(1-methyl-1H-pyrazol-4-yl)-4-(morpholin-4-yl)-1H-pyrrolo[2,3-b]pyridine], the EC50 was found to be 26.5 nM.

`CN(C)c1c(C#N)cnc2[nH]cc(-c3cccc(C#N)c3F)c12` [Example 14, 3-(3-cyano-2-fluorophenyl)-4-(dimethylamino)-1H-pyrrolo[2,3-b]pyridine-5-carbonitrile]: the half-maximal effective concentration (EC50) was found to be 25.9 nM. In the case of `COc1ccc(F)cc1-c1c[nH]c2nccc(N3CCOCC3)c12` [Example 15, 3-(5-fluoro-2-methoxyphenyl)-4-(morpholin-4-yl)-1H-pyrrolo[2,3-b]pyridine], the EC50 is 92.3 nM.

For the compound `COc1cc(F)cc(-c2c[nH]c3nccc(N4CCOCC4)c23)c1` [Example 16, 3-(3-fluoro-5-methoxyphenyl)-4-(morpholin-4-yl)-1H-pyrrolo[2,3-b]pyridine], the concentration for a half-maximal effect (EC50) came to 44.3 nM. The result for `Cc1[nH]c2nccc(N3CCOCC3)c2c1-c1cnn(C)c1` [Example 17, 2-methyl-3-(1-methyl-1H-pyrazol-4-yl)-4-(morpholin-4-yl)-1H-pyrrolo[2,3-b]pyridine] reads 137 nM; that for `Cc1cc(N2CCOCC2)c2c(-c3cccc(C#N)c3F)c[nH]c2n1` [Example 18, 2-fluoro-3-[6-methyl-4-(morpholin-4-yl)-1H-pyrrolo[2,3-b]pyridin-3-yl]benzonitrile], 95.4 nM.

Turning to `N#Cc1cccc(-c2c[nH]c3nccc(N4CCOCC4)c23)n1` [Example 19, 6-[4-(morpholin-4-yl)-1H-pyrrolo[2,3-b]pyridin-3-yl]pyridine-2-carbonitrile], the EC50 was determined as 47.5 nM. Regarding `Clc1cccc(-c2c[nH]c3nccc(N4CCOCC4)c23)c1` [Example 20, 3-(3-chlorophenyl)-4-(morpholin-4-yl)-1H-pyrrolo[2,3-b]pyridine], the EC50 was 53.7 nM. Take `Fc1cc(Cl)cc(-c2c[nH]c3nccc(N4CCOCC4)c23)c1` [Example 21, 3-(3-chloro-5-fluorophenyl)-4-(morpholin-4-yl)-1H-pyrrolo[2,3-b]pyridine]: the EC50 came out at 51.5 nM. With `Fc1ccc(F)c(-c2c[nH]c3nccc(N4CCOCC4)c23)c1` [Example 22, 3-(2,5-difluorophenyl)-4-(morpholin-4-yl)-1H-pyrrolo[2,3-b]pyridine] the figure was 130 nM; with `Clc1ccccc1-c1c[nH]c2nccc(N3CCOCC3)c12` [Example 23, 3-(2-chlorophenyl)-4-(morpholin-4-yl)-1H-pyrrolo[2,3-b]pyridine], 143 nM.

On to `Fc1cccc(-c2c[nH]c3nccc(N4CCOCC4)c23)c1F` [Example 24, 3-(2,3-difluorophenyl)-4-(morpholin-4-yl)-1H-pyrrolo[2,3-b]pyridine], for which the half-maximal effective concentration (EC50) is 16.8 nM. On to `Fc1cccc(-c2c[nH]c3nccc(N4CCOCC4)c23)c1` [Example 25, 3-(3-fluorophenyl)-4-(morpholin-4-yl)-1H-pyrrolo[2,3-b]pyridine], for which the EC50 is 34.5 nM. The result for `Fc1ccccc1-c1c[nH]c2nccc(N3CCOCC3)c12` [Example 26, 3-(2-fluorophenyl)-4-(morpholin-4-yl)-1H-pyrrolo[2,3-b]pyridine] reads 29 nM; that for `Fc1ccc(Cl)cc1-c1c[nH]c2nccc(N3CCOCC3)c12` [Example 27, 3-(5-chloro-2-fluorophenyl)-4-(morpholin-4-yl)-1H-pyrrolo[2,3-b]pyridine], 57.6 nM; that for `OCc1cccc(-c2c[nH]c3nccc(N4CCOCC4)c23)c1` [Example 28, {3-[4-(morpholin-4-yl)-1H-pyrrolo[2,3-b]pyridin-3-yl]phenyl}methanol], 96.3 nM. On to `OCc1ccc(F)c(-c2c[nH]c3nccc(N4CCOCC4)c23)c1` [Example 29, {4-fluoro-3-[4-(morpholin-4-yl)-1H-pyrrolo[2,3-b]pyridin-3-yl]phenyl}methanol], for which the half-maximal effective concentration (EC50) was 72.5 nM.

`Cc1nnc(-c2cccc(-c3c[nH]c4nccc(N5CCOCC5)c34)c2)o1` [Example 30, 3-[3-(5-methyl-1,3,4-oxadiazol-2-yl)phenyl]-4-(morpholin-4-yl)-1H-pyrrolo[2,3-b]pyridine]: the EC50 was found to be 179 nM. Regarding `COc1cccc(-c2c[nH]c3nccc(N4CCOCC4)c23)c1` [Example 31, 3-(3-methoxyphenyl)-4-(morpholin-4-yl)-1H-pyrrolo[2,3-b]pyridine], the concentration giving a half-maximal response (EC50) was determined as 124 nM.

Take `Fc1c(Cl)cccc1-c1c[nH]c2nccc(N3CCOCC3)c12` [Example 32, 3-(3-chloro-2-fluorophenyl)-4-(morpholin-4-yl)-1H-pyrrolo[2,3-b]pyridine]: the 50% effective concentration (EC50) is 40.7 nM. Consider `Fc1cc(F)c(F)c(-c2c[nH]c3nccc(N4CCOCC4)c23)c1` [Example 33, 4-(morpholin-4-yl)-3-(2,3,5-trifluorophenyl)-1H-pyrrolo[2,3-b]pyridine], for which the EC50 was found to be 69.7 nM.

On to `Fc1cc(F)cc(-c2c[nH]c3nccc(N4CCOCC4)c23)c1` [Example 34, 3-(3,5-difluorophenyl)-4-(morpholin-4-yl)-1H-pyrrolo[2,3-b]pyridine], for which the half-maximal effective concentration (EC50) came to 43.3 nM. For `Clc1ncccc1-c1c[nH]c2nccc(N3CCOCC3)c12` [Example 35, 3-(2-chloropyridin-3-yl)-4-(morpholin-4-yl)-1H-pyrrolo[2,3-b]pyridine], the concentration for a half-maximal effect (EC50) stood at 110 nM. On to `c1ccc(-c2c[nH]c3nccc(N4CCOCC4)c23)cc1` [Example 36, 4-(morpholin-4-yl)-3-phenyl-1H-pyrrolo[2,3-b]pyridine], for which the 50% effective concentration (EC50) stood at 49.7 nM. With `Fc1ccc(-c2c[nH]c3nccc(N4CCOCC4)c23)c(F)c1` [Example 37, 3-(2,4-difluorophenyl)-4-(morpholin-4-yl)-1H-pyrrolo[2,3-b]pyridine] the figure was 147 nM; with `Cc1cc(F)cc(-c2c[nH]c3nccc(N4CCOCC4)c23)c1` [Example 38, 3-(3-fluoro-5-methylphenyl)-4-(morpholin-4-yl)-1H-pyrrolo[2,3-b]pyridine], 22.9 nM. On to `N#Cc1cc(F)cc(-c2c[nH]c3nccc(N4CCOCC4)c23)c1` [Example 39, 3-fluoro-5-[4-(morpholin-4-yl)-1H-pyrrolo[2,3-b]pyridin-3-yl]benzonitrile], for which the 50% effective concentration (EC50) was 140 nM.
